Test results reported in US9109041B2, “Analog compounds of analgesic peptides derived from the venom of crotalus durissus terrificus snakes, their uses, compositions, methods of preparation and purification” (priority 2004, dated 2015).

How the values were obtained:
[1] = test system: spontaneous pain induced by the Walker 256 tumor; test: spontaneous pain induced by the Walker 256 tumor (lifting, licking); format: in vivo, rat; details: 6 μg/kg p.o.
Text: (§1) The Walker 256 tumor cells were kindly provided by Prof. Dr. Rui Curi, of the Physiology and Biophysics Department of the Biomedical Science Institute of the University of São Paulo. The tumor-bearing animal was sacrificed and the tumoral tissue was removed, placed on a Petri dish containing 0.9% saline. Then, the tumor was cut in smaller parts, and transferred into a beaker containing saline. The material was triturated with a fine-cut, until the tumor is totally fragmented. Then, this material was filtered in gauze and the liquid collected in a beaker. All procedures were performed on ice. The material of the beaker was transferred to 50 ml plastic tubes and centrifuged at 4° C., for 10 minutes, at 1200 rpm. After centrifugation, the supernatant was rejected and the precipitate resuspended in saline 0.9%. For cell counts, the suspension of cells was diluted (1:100) in saline. An aliquot (200 μl) was removed and placed in a test tube containing 200 μl of 1% Trypan blue. The cell number was determined in optical microscope using Neubauer's chamber. The cellular viability was determined considering viable the light-refracting cells.
(§2) After determining the number of cells, 1 ml of the suspension, containing 1×10^7 cells, was injected by intraperitoneal route, on the right side of the rats to obtain liquid tumor (ascites).
(§3) Five days after injection, the rats with ascites were sacrificed and the ascetic fluid collected from the peritoneal cavity and placed in a test tube containing EDTA. The liquid was diluted 100 times with phosphate-buffered saline (PBS), pH 7.4. The cell count was done after dilution with Trypan blue, as described above. Tumor cell count was ascertained to 1×10^6 cells in 100 μl, by dilution with PBS. This number of cells was determined in preliminary tests for induction of cancer pain in rats. In this final cell number adjustment, the volume of antibiotic (Benzetacil®) added to the suspension (150,000 units of antibiotic/10 ml of suspension), was taken into consideration. The antibiotic was used in order to avoid microbial contamination. The cells were injected by intraplantar route into one of the rat hind paws. Control animals were injected with PBS into the contralateral paw, in the same experimental conditions.
(§4) Hyperalgesia, allodynia and spontaneous pain were determined before (BM-basal measurement) and 5 days after tumor cell injection, before (IM-initial measurement) and 2 hours after (FM-Final measurement) peptide administration.
(§5) The results were analyzed comparing the mean values of the basal and initial measurements, or of the initial and final measurements or, when determined, by comparing the mean values obtained in the different experimental groups (Tables 17, 18, 19).

[2] = test system: allodynia induced by the Walker 256 tumor; test: allodynia induced by the Walker 256 tumor (cancer pain); format: in vivo, rat
Text: as §1, §2, §3, §4, §5
(§6) For this purpose, the animals were treated with CTOP, a specific μ receptor antagonist (20 μg/paw), nor-BNI, a specific κ receptor antagonist (50 μg/paw) or with ICI 174,864, a specific δ receptor antagonist (10 μg/paw). The antagonists were injected by intraplantar route. The peptide was administered in the dose of 6 μg/kg, orally, immediately before the injection of the opioid antagonists. The results were analyzed comparing the mean values of the basal and initial measurements, or of the initial and final measurements or, when determined, by comparing the mean values obtained in the different experimental groups ( Table 20).

[3] = test system: carrageenin-induced hyperalgesia; test: rat paw pressure test, carrageenin-induced hyperalgesia; format: in vivo
Method: The antinociceptive effect of the synthetic peptide was evaluated in the inflammatory hyperalgesia induced by carrageenin. […] Saline, administered by the same route was used as control.
As determined in the PGE2 model, the participation of opioid receptors in the antinociceptive effect of the peptide SEQ ID NO: 2 in the carrageenin-induced hyperalgesia (Table 10) was investigated. Therefore, the animals were treated with CTOP, a specific μ receptor antagonist (20 μg/paw), nor-BNI, a specific κ receptor antagonist (50 μg/paw) or with ICI 174.864, a specific δ receptor antagonist (10 μg/paw), injected by i.pl. route concomitantly to carrageenin. Peptide was administered in the dose of 1 μg/kg, orally, immediately before carrageenin.

[4] = test system: spontaneous pain induced by constriction of the sciatic nerve; test: spontaneous pain induced by constriction of the sciatic nerve (licking and lifting time); format: in vivo, rat; details: 5 μg/kg p.o.
Method: For the induction of neuropathic pain, surgery was performed in the sciatic nerve, in accordance with the method described by Bennett, G. J and Xie, Y. K. (Pain, 33:87-107, 1988). The animals were anesthetized with halothane. The sciatic nerve was exposed in the middle region of the thigh, moving away the femoral biceps muscle. Close to the trifurcation of the sciatic nerve, 7 mm of distance from the trifurcation, 4 loose ligations were performed (chromed catgut 4-0) around it, distant from each other in approximately 1 mm. The bindings were performed along the nerve, up to 4-5 mm from the initial point. The incision was sutured in layers, using silk suture thread number 4-0.
For the observation of the signs that characterize spontaneous pain, the animals were placed one by one, in a transparent plastic box. After the acclimatizing period of 30 minutes, the rats were observed during 10 minutes, determining the duration of the licking (in seconds) and lifting time. The licking and lifting activities, performed as part of the normal grooming behavior of animals, were not considered.

[5] = test system: hyperalgesia induced by the Walker 256 tumor; test: hyperalgesia induced by the Walker 256 tumor (cancer pain); format: in vivo, rat
Text: as §1, §2, §3, §4, §5, §6

[6] = 5th day after tumor implantation, 2 hours after peptide
[7] = 5th day after tumor implantation, before peptide
[8] = 6 μg/kg p.o. + CTOP 20 μg/paw i.pl., 5th day, 2 hours after peptide
[9] = 6 μg/kg p.o. + CTOP 20 μg/paw i.pl., 5th day, before peptide
[10] = 6 μg/kg p.o. + CTOP 20 μg/paw i.pl., before injection of the tumor
[11] = 6 μg/kg p.o. + ICI 174,864 10 μg/paw i.pl., 5th day, 2 hours after peptide
[12] = 6 μg/kg p.o. + ICI 174,864 10 μg/paw i.pl., 5th day, before peptide
[13] = 6 μg/kg p.o. + ICI 174,864 10 μg/paw i.pl., before injection of the tumor
[14] = 6 μg/kg p.o. + nor-BNI 50 μg/paw i.pl., 5th day, 2 hours after peptide
[15] = 6 μg/kg p.o. + nor-BNI 50 μg/paw i.pl., 5th day, before peptide
[16] = 6 μg/kg p.o. + nor-BNI 50 μg/paw i.pl., before injection of the tumor
[17] = peptide 6 μg/kg p.o., CTOP 20 μg/paw i.pl.
[18] = peptide 6 μg/kg p.o., ICI 174,864 10 μg/paw i.pl.
[19] = peptide 6 μg/kg p.o., nor-BNI 50 μg/paw i.pl.
[20] = day 14 after surgery, before peptide, 10 min observation

“Xaa-Phe-Ser-Pro-Glu-Asn-Cys-Gln-Gly-Glu-Ser-Gln-Pro-Cys [SEQ ID NO: 2]” was tested, and the “Licking duration, FM” value [1, 6] was 1.6 ± 0.81 s, the “Lifting duration, FM” value [1, 6] was 25 ± 7.72 s and the “Licking duration, IM” value [1, 7] was 15 ± 1.46 s. The “Lifting duration, IM” value [1, 7] was 204 ± 30.74 s, the “Licking duration, BM” value ([1]; before injection of the tumor) was 0 ± 0.00 s and the “Lifting duration, BM” value ([1]; before injection of the tumor) was 0 ± 0.00 s. The “paw withdrawal threshold (allodynia), FM” value [2, 8] was 4.98 ± 0.03 log 10 (mg × 10), the “paw withdrawal threshold (allodynia), IM” value [2, 9] was 4.41 ± 0.00 log 10 (mg × 10) and the “paw withdrawal threshold (allodynia), BM” value [2, 10] was 5.03 ± 0.02 log 10 (mg × 10). For the same substance, the “paw withdrawal threshold (allodynia), FM” value [2, 11] was 4.56 ± 0.03 log 10 (mg × 10), the “paw withdrawal threshold (allodynia), IM” value [2, 12] was 4.41 ± 0.00 log 10 (mg × 10) and the “paw withdrawal threshold (allodynia), BM” value [2, 13] was 4.99 ± 0.02 log 10 (mg × 10). For the same substance, the “paw withdrawal threshold (allodynia), FM” value [2, 14] was 4.41 ± 0.00 log 10 (mg × 10), the “paw withdrawal threshold (allodynia), IM” value [2, 15] was 4.41 ± 0.00 log 10 (mg × 10) and the “paw withdrawal threshold (allodynia), BM” value [2, 16] was 4.97 ± 0.00 log 10 (mg × 10). The “paw withdrawal threshold (allodynia), FM” value ([2]; 6 μg/kg p.o., 5th day after tumor implantation, 2 hours after peptide (Table 18)) was 4.97 ± 0.00 log 10 (mg × 10), the “paw withdrawal threshold (allodynia), IM” value ([2]; 6 μg/kg p.o., 5th day after tumor implantation, before peptide (Table 18)) was 4.41 ± 0.00 log 10 (mg × 10) and the “paw withdrawal threshold (allodynia), FM” value ([2]; 6 μg/kg p.o., 5th day, 2 hours after peptide (Table 21)) was 4.97 ± 0.00 log 10 (mg × 10). For the same substance, the “paw withdrawal threshold (allodynia), IM” value ([2]; 6 μg/kg p.o., 5th day, before peptide (Table 21)) was 4.41 ± 0.00 log 10 (mg × 10), the “paw withdrawal threshold (allodynia), BM” value ([2]; 6 μg/kg p.o., before injection of the tumor (Table 18)) was 4.97 ± 0.00 log 10 (mg × 10) and the “paw withdrawal threshold (allodynia), BM” value ([2]; 6 μg/kg p.o., before injection of the tumor (Table 21)) was 4.97 ± 0.00 log 10 (mg × 10). For the same substance, the “effect of the mu opioid receptor antagonist on the anti-allodynic effect of the peptide” value [2, 17] was “did not alter”, the “effect of the delta opioid receptor antagonist on the anti-allodynic effect of the peptide” value [2, 18] was “partially inhibited” and the “effect of the kappa opioid receptor antagonist on the anti-allodynic effect of the peptide” value [2, 19] was “blocked”. The “pain threshold, FM (g) ± S.E.M” value ([3]; 1 μg/kg p.o. + CTOP 20 μg/paw i.pl. with carrageenin, after carrageenin) was 126 ± 2.92 g, the “pain threshold, IM (g) ± S.E.M.” value ([3]; 1 μg/kg p.o. + CTOP 20 μg/paw i.pl., before carrageenin) was 76 ± 1.87 g and the “pain threshold, FM (g) ± S.E.M” value ([3]; 1 μg/kg p.o. + ICI174,864 10 μg/paw i.pl. with carrageenin, after carrageenin) was 128 ± 2.00 g. For the same substance, the “pain threshold, IM (g) ± S.E.M.” value ([3]; 1 μg/kg p.o. + ICI174,864 10 μg/paw i.pl., before carrageenin) was 77 ± 1.22 g, the “pain threshold, FM (g) ± S.E.M” value ([3]; 1 μg/kg p.o. + nor-BNI 50 μg/paw i.pl. with carrageenin, after carrageenin) was 56 ± 1.00 g and the “pain threshold, IM (g) ± S.E.M.” value ([3]; 1 μg/kg p.o. + nor-BNI 50 μg/paw i.pl., before carrageenin) was 78 ± 2.00 g. For the same substance, the “pain threshold, FM (g) ± S.E.M” value ([3]; 1 μg/kg p.o., 3 h after carrageenin 200 μg/paw (Table 9)) was 116 ± 1.87 g, the “pain threshold, FM (g) ± S.E.M” value ([3]; 1 μg/kg p.o., after carrageenin (Table 10)) was 129 ± 1.87 g and the “pain threshold, IM (g) ± S.E.M.” value ([3]; 1 μg/kg p.o., before carrageenin (Table 9)) was 77 ± 2.00 g. The “pain threshold, IM (g) ± S.E.M.” value ([3]; 1 μg/kg p.o., before carrageenin (Table 10)) was 77 ± 1.22 g, the “opioid receptor antagonist interfering with the antinociceptive effect” value ([3]; peptide 1 μg/kg p.o., mu, kappa, delta antagonists i.pl.) was “only kappa opioid receptor antagonist was able to interfere” and the “lifting time, FM 1 h” value ([4]; 1 h after peptide) was 2 ± 0.21 s. The “paw licking time, FM 1 h” value ([4]; 1 h after peptide) was 2 ± 0.21 s, the “lifting time, FM 3 h” value ([4]; 3 h after peptide) was 2 ± 0.26 s and the “paw licking time, FM 3 h” value ([4]; 3 h after peptide) was 2 ± 0.21 s. The “lifting time, FM 24 h” value ([4]; 24 h after peptide) was 2 ± 0.22 s, the “paw licking time, FM 24 h” value ([4]; 24 h after peptide) was 2 ± 0.39 s and the “lifting time, FM 48 h” value ([4]; 48 h after peptide) was 1.0 ± 0.16 s. The “paw licking time, FM 48 h” value ([4]; 48 h after peptide) was 1.5 ± 0.22 s, the “lifting time, FM 72 h” value ([4]; 72 h after peptide) was 2 ± 0.26 s and the “paw licking time, FM 72 h” value ([4]; 72 h after peptide) was 1.5 ± 0.22 s. For the same substance, the “lifting time, FM 96 h” value ([4]; 96 h after peptide) was 1.5 ± 0.16 s, the “paw licking time, FM 96 h” value ([4]; 96 h after peptide) was 21 ± 0.26 s and the “lifting time, FM 120” value ([4]; 120 h after peptide) was 95 ± 0.50 s. For the same substance, the “paw licking time, FM 120” value ([4]; 120 h after peptide) was 21 ± 0.38 s, the “lifting time, IM” value [4, 20] was 97 ± 0.43 s and the “paw licking time, IM” value [4, 20] was 22 ± 0.64 s. For the same substance, the “pain threshold, FM” value [5, 8] was 72 ± 2.81 g, the “pain threshold, IM” value [5, 9] was 37 ± 2.81 g and the “pain threshold, BM” value [5, 10] was 70 ± 1.29 g. For the same substance, the “pain threshold, FM” value [5, 11] was 52 ± 1.22 g, the “pain threshold, IM” value [5, 12] was 33 ± 3.39 g and the “pain threshold, BM” value [5, 13] was 67 ± 1.22 g. The “pain threshold, FM” value [5, 14] was 32 ± 1.05 g, the “pain threshold, IM” value [5, 15] was 32 ± 2.14 g and the “pain threshold, BM” value [5, 16] was 69 ± 1.53 g. For the same substance, the “pain threshold, FM” value ([5]; 6 μg/kg p.o., 5th day after tumor implantation, 2 hours after peptide (Table 17)) was 76 ± 2.29 g, the “pain threshold, IM” value ([5]; 6 μg/kg p.o., 5th day after tumor implantation, before peptide (Table 17)) was 27 ± 1.01 g and the “pain threshold, FM” value ([5]; 6 μg/kg p.o., 5th day, 2 hours after peptide (Table 20)) was 75 ± 2.88 g. The “pain threshold, IM” value ([5]; 6 μg/kg p.o., 5th day, before peptide (Table 20)) was 36 ± 2.39 g, the “pain threshold, BM” value ([5]; 6 μg/kg p.o., before injection of the tumor (Table 17)) was 69 ± 1.30 g and the “pain threshold, BM” value ([5]; 6 μg/kg p.o., before injection of the tumor (Table 20)) was 71 ± 1.25 g. For the same substance, the “effect of the mu opioid receptor antagonist on the anti-hyperalgesic effect of the peptide” value [5, 17] was “did not alter”, the “effect of the delta opioid receptor antagonist on the anti-hyperalgesic effect of the peptide” value [5, 18] was “partially inhibited” and the “effect of the kappa opioid receptor antagonist on the anti-hyperalgesic effect of the peptide” value [5, 19] was “blocked”.
